According to publication PMC6777825, “Differential scanning fluorimetric analysis of the amino-acid binding to taste receptor using a model receptor protein, the ligand-binding domain of fish T1r2a/T1r3” (PLoS ONE, 2019):
Read-outs that look alike come from different tables or passages of the source.

Tests used:
[1] = biological target: T1r2a/T1r3 full-length receptor (Oryzias latipes, UniProt A0A173M094+A0A173M0G2); experiment: Ca2+-flux receptor response assay in Flip-In 293 cells stably expressing full-length T1r2a, T1r3 and Gα16-gust44; assay type: cell-based, O. latipes; conditions: for ΔRFU: average ± s.e.m.
Sequence of T1r2a/T1r3 full-length receptor (A0A173M0G2 entry or part of it): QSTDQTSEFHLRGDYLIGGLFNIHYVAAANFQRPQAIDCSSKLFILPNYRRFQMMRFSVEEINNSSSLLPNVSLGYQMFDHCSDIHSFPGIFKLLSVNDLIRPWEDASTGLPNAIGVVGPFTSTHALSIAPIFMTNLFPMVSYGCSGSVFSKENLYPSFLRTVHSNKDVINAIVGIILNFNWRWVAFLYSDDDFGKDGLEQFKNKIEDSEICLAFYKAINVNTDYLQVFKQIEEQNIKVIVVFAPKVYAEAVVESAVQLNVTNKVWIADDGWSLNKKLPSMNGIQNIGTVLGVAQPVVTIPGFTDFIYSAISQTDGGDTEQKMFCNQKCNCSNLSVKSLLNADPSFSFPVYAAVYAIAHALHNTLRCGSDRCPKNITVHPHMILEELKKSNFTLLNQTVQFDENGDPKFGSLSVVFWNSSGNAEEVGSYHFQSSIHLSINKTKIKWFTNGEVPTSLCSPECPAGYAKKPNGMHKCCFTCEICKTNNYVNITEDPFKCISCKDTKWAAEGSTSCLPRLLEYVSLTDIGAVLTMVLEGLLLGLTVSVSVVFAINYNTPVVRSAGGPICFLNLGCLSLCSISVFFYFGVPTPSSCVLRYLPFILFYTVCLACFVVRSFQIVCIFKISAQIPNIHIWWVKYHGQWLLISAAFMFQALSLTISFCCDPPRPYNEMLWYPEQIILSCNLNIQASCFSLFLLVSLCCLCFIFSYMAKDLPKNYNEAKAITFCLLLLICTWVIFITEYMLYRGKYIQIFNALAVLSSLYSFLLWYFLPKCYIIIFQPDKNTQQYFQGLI
Sequence of T1r2a/T1r3 full-length receptor (A0A173M094 entry or part of it): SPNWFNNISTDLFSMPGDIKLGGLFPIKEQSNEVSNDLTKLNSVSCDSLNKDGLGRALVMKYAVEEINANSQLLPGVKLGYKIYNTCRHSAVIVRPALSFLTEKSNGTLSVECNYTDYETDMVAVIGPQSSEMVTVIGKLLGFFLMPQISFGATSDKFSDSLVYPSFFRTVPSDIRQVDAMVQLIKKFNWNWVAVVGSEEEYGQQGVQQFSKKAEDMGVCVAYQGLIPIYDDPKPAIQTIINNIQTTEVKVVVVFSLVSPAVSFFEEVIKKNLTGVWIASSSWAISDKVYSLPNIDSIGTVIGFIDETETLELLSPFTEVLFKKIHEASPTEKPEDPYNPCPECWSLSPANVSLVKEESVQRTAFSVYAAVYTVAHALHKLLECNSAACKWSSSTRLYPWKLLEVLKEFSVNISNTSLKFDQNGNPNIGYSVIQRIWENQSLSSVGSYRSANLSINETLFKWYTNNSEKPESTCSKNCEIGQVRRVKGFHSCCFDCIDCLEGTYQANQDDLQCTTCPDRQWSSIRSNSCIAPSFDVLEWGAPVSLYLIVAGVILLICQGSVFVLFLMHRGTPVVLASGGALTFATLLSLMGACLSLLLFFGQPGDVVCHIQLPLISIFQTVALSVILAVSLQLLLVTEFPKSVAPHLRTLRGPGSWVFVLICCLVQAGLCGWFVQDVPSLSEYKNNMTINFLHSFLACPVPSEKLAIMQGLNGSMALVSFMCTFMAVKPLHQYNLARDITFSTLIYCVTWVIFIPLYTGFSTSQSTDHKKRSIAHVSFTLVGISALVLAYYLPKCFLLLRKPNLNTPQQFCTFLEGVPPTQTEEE
Protocol: The Ca^2+-flux assay was performed using Flip-In 293 cell line (Life Technologies) stably expressing full-length T1r2a, T1r3, and Gα16-gust44 as described previously. The response stimulated by either 5 or 10 mM amino acid was represented asΔRFU (delta relative fluorescence unit) defined as the maximum fluorescence intensity induced by the addition of the amino acid, subtracted with that of an assay buffer in the absence of amino acid.

medaka T1r2a/T1r3LBD = medaka T1r2a/T1r3LBD (Oryzias latipes, UniProt A0A173M094+A0A173M0G2); experiment: Differential scanning fluorimetry (DSF) thermal shift ligand-binding assay; design: species or system O. latipes; conditions: for ΔTm: average ± s.e.m., n = 4; for effect on thermal stability / Tm shift of T1r2a/T1r3LBD (in words): DSF, 0.1-10 mM amino acid; for Tm shift (in words): adding up to 10 mM
Sequence of medaka T1r2a/T1r3LBD (A0A173M094 entry or part of it): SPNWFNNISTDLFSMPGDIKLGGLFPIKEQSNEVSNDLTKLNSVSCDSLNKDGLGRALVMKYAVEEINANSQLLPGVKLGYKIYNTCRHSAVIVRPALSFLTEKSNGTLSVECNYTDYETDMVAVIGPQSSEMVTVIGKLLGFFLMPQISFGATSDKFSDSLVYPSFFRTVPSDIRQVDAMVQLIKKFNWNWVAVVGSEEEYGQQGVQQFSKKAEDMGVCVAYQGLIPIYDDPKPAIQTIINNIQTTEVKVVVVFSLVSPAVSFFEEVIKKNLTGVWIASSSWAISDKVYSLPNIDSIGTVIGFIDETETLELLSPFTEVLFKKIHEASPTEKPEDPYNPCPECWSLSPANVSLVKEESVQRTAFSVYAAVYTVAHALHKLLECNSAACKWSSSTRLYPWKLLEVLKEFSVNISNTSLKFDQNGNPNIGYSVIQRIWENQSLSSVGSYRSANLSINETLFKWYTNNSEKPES
Sequence of medaka T1r2a/T1r3LBD (A0A173M0G2 entry or part of it): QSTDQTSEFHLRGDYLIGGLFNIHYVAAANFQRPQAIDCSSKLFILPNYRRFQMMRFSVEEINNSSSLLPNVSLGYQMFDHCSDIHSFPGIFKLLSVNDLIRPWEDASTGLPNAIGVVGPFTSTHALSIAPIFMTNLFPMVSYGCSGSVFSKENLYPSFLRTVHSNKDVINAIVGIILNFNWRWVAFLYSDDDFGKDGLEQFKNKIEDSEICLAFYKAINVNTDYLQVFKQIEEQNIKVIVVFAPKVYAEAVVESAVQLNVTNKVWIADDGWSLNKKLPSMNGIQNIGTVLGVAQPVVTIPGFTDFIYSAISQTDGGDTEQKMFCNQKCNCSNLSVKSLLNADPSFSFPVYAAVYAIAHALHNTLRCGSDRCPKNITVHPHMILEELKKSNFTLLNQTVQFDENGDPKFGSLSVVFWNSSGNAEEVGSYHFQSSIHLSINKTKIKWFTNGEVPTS
Protocol: The protein sample was prepared as described previously. Briefly, Drosophila S2 cells (Invitrogen) stably expressing C-terminal FLAG-tagged T1r2aLBD and T1r3LBD [11, 21] were cultured in ExpressFiveSFM (LifeTechnologies) for five days at 27 °C. The T1r2a/T1r3-LBD protein was purified from the culture medium by the use of ANTI-FLAG M2 Affinity Gel (SIGMA). The purified protein was dialyzed against the assay buffer (20 mM Tris-HCl, 300 mM NaCl, 2 mM CaCl2, pH 8.0).
The protein sample (~1 μg) was mixed with Protein Thermal Shift Dye (Applied Biosystems) and 10~10,000 μM concentration of each amino acid in 20 μL of assay buffer and loaded to a MicroAmpR Fast Optical 48-Well Reaction Plate (Applied Biosystems). Specifically, to minimize the changes of the chemical and optical condition, the amino acid solutions were prepared by the exact same buffer used for the final dialysis of the protein, followed by the re-adjustment of the pH to ~ 8.0 by addition of either NaOH or HCl, and mixed with the protein diluted with the same buffer.
Fluorescent intensity was measured by the StepOne Real-Time PCR System (Applied Biosystems). The temperature was raised from 25 °C to 99 °C with a velocity of 0.022 °C/sec. The reporter and quencher for detection were set as “ROX” and “none”, respectively. Apparent melting transition temperature (Tm) was determined by the use of the maximum of the derivatives of the melt curve (dFluorescence/dT) by Protein Thermal Shift Software version 1.3 (Applied Biosystems).
The apparent dissociation constant (Kd-app) derived from the DSF results was estimated based on Eq 1 proposed by Schellman, assuming that the unfolding of the protein is reversible: ΔTm=Tm−T0=TmT0R/ΔH^0ln(1+[L]/Kd-app) (1) where [L] is the ligand concentration; Tm and T0 are the apparent melting transition temperatures in the presence and absence of the ligand; R is the gas constant; ΔH^0 is the enthalpy of unfolding at T0, assuming that there are no significant variations under the tested conditions. If the melt curves show biphasic profiles, the second (or the right side) Tm values were adopted for calculation, as described in the Results section.
For multiple regression analyses shown in Fig 2B, the apparent Tm values determined at different ligand concentrations were fitted to Eq 1 by using KaleidaGraph (Synergy Software), assuming that the change of the dissociation constant accompanied by the Tm shift is negligible.

[2] = cited from earlier work; for Hydropathy Index: hydrophobicity/hydrophilicity, ref Kyte & Doolittle, J. Mol. Biol., 157, 105 (1982); for pI: ref Handbook of Chemistry and Physics, CRC Press; for logKd_CW (polarity): transfer from cyclohexane to an aqueous solution, ref Radzicka & Wolfenden, Biochemistry, 27, 1664 (1988); for Es'c (steric effects) / πα (hydrophobicity) / HP (hydration potential): α-substituent group; for Es'c (steric effects) / πα (hydrophobicity): ref Akamatsu et al., J. Pharm. Sci., 83, 1026 (1994); for HP (hydration potential): ref Wolfenden et al., Biochemistry, 20, 849 (1981)
[3] = 5 mM amino acid, n = 6 (n = 12 for L-glutamine)
[4] = estimated from ΔRFU at 10 mM by Hill equation, ΔRFUmax 104.3, read-out: EC50-est
[5] = from response at 10 mM, log 1/EC50-est, read-out: pEC50-est (converted)
[6] = from response at 10 mM, log 1/EC50-est
[7] = from ΔTm at 0.1 mM via Eq 1, T0 326.1 K, ΔH0 72.1 kcal mol-1, read-out: Kd-app estimated at a single ligand concentration
[8] = from ΔTm at 1 mM via Eq 1, T0 326.1 K, ΔH0 72.1 kcal mol-1, read-out: Kd-app estimated at a single ligand concentration
[9] = from ΔTm at 10 mM via Eq 1, T0 326.1 K, ΔH0 72.1 kcal mol-1, read-out: Kd-app estimated at a single ligand concentration
[10] = log 1/Kd-app, converted from S1 Table values (10 mM; L-Ala 1 mM, L-Gln 0.1 mM)

ΔRFU [1, 3]	ΔRFU ([1]; 10 mM amino acid, n = 6)	EC50 [1, 4]	ΔTm (medaka T1r2a/T1r3LBD; 0.1 mM amino acid)	ΔTm (medaka T1r2a/T1r3LBD; 1 mM amino acid)	ΔTm (medaka T1r2a/T1r3LBD; 10 mM amino acid)	pEC50-est [1, 6]	potency estimated from few doses (medaka T1r2a/T1r3LBD; [7])	potency estimated from few doses (medaka T1r2a/T1r3LBD; [8])	potency estimated from few doses (medaka T1r2a/T1r3LBD; [9])	pKd-app (medaka T1r2a/T1r3LBD; [10])	SMILES	Hydropathy Index [2]	pI [2]	logKd_CW (polarity) [2]	Es'c (steric effects) [2]	πα (hydrophobicity) [2]	HP (hydration potential) [2]	further results
0.460 ± 2.58	15.7 ± 6.13	56.3 mM	0.12 ± 0.07 K	0.38 ± 0.06 K	4.36 ± 0.99 K	1.25	2.4 mM	7.33 mM	3 mM	2.52	NC(=O)C[C@H](N)C(=O)O [L-Asn]	-3.5	5.41	4.88	-0.98	-0.52	-9.68	–
-4.00 ± 1.10	-9.43 ± 1.83	–	-0.06 ± 0.17 K	-1.71 ± 0.19 K	0.74 ± 0.05 K	–	–	–	34.9 mM	–	N[C@@H](CC(=O)O)C(=O)O [L-Asp, L-aspartate]	-3.5	2.77	3.27	-0.98	0.05	-10.95	effect on thermal stability / Tm shift of T1r2a/T1r3LBD (in words) (medaka T1r2a/T1r3LBD): destabilized the protein; Kd (medaka T1r2a/T1r3LBD; log 1/Kd-app, converted from S1 Table values (10 mM; L-Ala 1 mM, L-Gln 0.1 mM), read-out: pKd-app (converted)): 34.7 mM
4.72 ± 2.39	14.4 ± 6.62	62.4 mM	-3.75 ± 0.33 K	1.21 ± 0.02 K	5.81 ± 0.07 K	1.20	–	1.96 mM	1.67 mM	2.78	N[C@@H](Cc1c[nH]cn1)C(=O)O [L-His]	-3.2	7.59	3.34	-0.86	0.17	-10.27	–
2.90 ± 2.82	30.5 ± 6.26	24.2 mM	-0.50 ± 0.11 K	-0.57 ± 0.07 K	2.89 ± 2.40 K	1.62	–	–	6.04 mM	2.22	CC[C@H](C)[C@H](N)C(=O)O [L-Ile]	4.5	6.02	-3.62	-1.81	1.43	2.15	–
0.933 ± 1.91	27.8 ± 5.89	27.5 mM	0.08 ± 0.09 K	-0.94 ± 0.07 K	6.91 ± 0.05 K	1.56	3.49 mM	–	1.11 mM	2.96	CC(C)C[C@H](N)C(=O)O [L-Leu]	–	–	-3.62	-1.44	1.52	2.28	–
-2.52 ± 1.72	21.8 ± 7.73	37.9 mM	0.45 ± 0.11 K	6.17 ± 0.05 K	8.85 ± 0.06 K	1.42	0.604 mM	0.146 mM	0.562 mM	3.25	CSCC[C@H](N)C(=O)O [L-Met]	1.9	5.74	-1.73	-1.03	0.99	-1.48	–
2.08 ± 2.32	22.4 ± 5.78	36.5 mM	0.30 ± 0.04 K	1.04 ± 0.12 K	3.53 ± 0.05 K	1.44	0.918 mM	2.37 mM	4.37 mM	2.36	N[C@@H](Cc1ccccc1)C(=O)O [L-Phe]	2.8	5.48	-2.19	-0.9	1.78	-0.76	–

SMILES	ΔRFU [1, 3]	ΔRFU ([1]; 10 mM amino acid, n = 6)	EC50 [1, 4]	ΔTm (medaka T1r2a/T1r3LBD; 0.1 mM amino acid)	ΔTm (medaka T1r2a/T1r3LBD; 1 mM amino acid)	ΔTm (medaka T1r2a/T1r3LBD; 10 mM amino acid)	pEC50-est [1, 6]	potency estimated from few doses (medaka T1r2a/T1r3LBD; [7])	potency estimated from few doses (medaka T1r2a/T1r3LBD; [8])	potency estimated from few doses (medaka T1r2a/T1r3LBD; [9])	pKd-app (medaka T1r2a/T1r3LBD; [10])	Hydropathy Index [2]	pI [2]	logKd_CW (polarity) [2]	Es'c (steric effects) [2]	πα (hydrophobicity) [2]	HP (hydration potential) [2]	further results
C[C@@H](N)C(=O)O [D-Ala, D-alanine]	7.08 ± 2.16	23.6 ± 8.83	34.2 mM	0.15 ± 0.05 K	-0.33 ± 0.07 K	-1.03 ± 0.09 K	–	–	–	–	–	–	–	–	–	–	–	full-length receptor response (in words) ([1]; 5 or 10 mM, compared to enantiomer L-alanine): significantly weak responses; EC50 ([1]; estimated from ΔRFU at 5 mM by Hill equation, ΔRFUmax 104.3, read-out: EC50-est): 68.7 mM; EC50 ([1]; from response at 5 mM, log 1/EC50-est, read-out: pEC50-est (converted)): 69.2 mM; EC50 [1, 5]: 33.9 mM; effect on thermal stability / Tm shift of T1r2a/T1r3LBD (in words) (medaka T1r2a/T1r3LBD): thermal destabilization; Tm shift (in words) (medaka T1r2a/T1r3LBD; listed as D-alanine): did not induce a significant Tm shift; Tm shift (in words) (medaka T1r2a/T1r3LBD; listed as d-alanine): no substantial Tm shifts; potency estimated from few doses (medaka T1r2a/T1r3LBD; read-out: Kd-app estimated at a single ligand concentration, from ΔTm at 0.1 mM via Eq 1, T0 326.1 K, ΔH0 72.1 kcal mol-1): 1.95 mM
NCCCC[C@H](N)C(=O)O [L-Lys, L-lysine]	8.68 ± 4.29	18.5 ± 8.01	–	-0.04 ± 0.03 K	-0.40 ± 0.17 K	-3.83 ± 0.30 K	–	–	–	–	–	–	–	–	–	–	–	EC50 ([1]; EC50-est, estimated from ΔRFU at 5 mM by Hill equation, ΔRFUmax 104.3): 55.1 mM; EC50 ([1]; EC50-est, estimated from ΔRFU at 10 mM by Hill equation, ΔRFUmax 104.3): 46.5 mM; EC50 ([1]; pEC50-est, from response at 5 mM, log 1/EC50-est): 55 mM; EC50 ([1]; pEC50-est, from response at 10 mM, log 1/EC50-est): 46.8 mM; effect on thermal stability / Tm shift of T1r2a/T1r3LBD (in words) (medaka T1r2a/T1r3LBD; listed as L-lysine): thermal destabilization; effect on thermal stability / Tm shift of T1r2a/T1r3LBD (in words) (medaka T1r2a/T1r3LBD; listed as lysine): destabilized the protein
O=C(O)[C@@H]1CCCN1 [L-Pro, L-proline]	2.90 ± 1.93	45.1 ± 7.06	13.2 mM	-0.15 ± 0.04 K	0.04 ± 0.07 K	7.24 ± 0.02 K	–	–	–	–	–	–	–	–	–	–	–	EC50 [1, 5]: 13.2 mM; potency estimated from few doses (medaka T1r2a/T1r3LBD; read-out: Kd-app estimated at a single ligand concentration, from ΔTm at 1 mM via Eq 1, T0 326.1 K, ΔH0 72.1 kcal mol-1): 79.9 mM; potency estimated from few doses (medaka T1r2a/T1r3LBD; read-out: Kd-app estimated at a single ligand concentration, from ΔTm at 10 mM via Eq 1, T0 326.1 K, ΔH0 72.1 kcal mol-1): 0.985 mM
